Reference: patent publication US6087119A, “Method for determining the catalytic activity of factor IXa” (Roche Diagnostics GmbH, priority 1996, dated 2000)
Several values for one entry are separate records, joined by “and”; a condition that tells them apart may be missing. Equal entries are not always repeated. Where two headings read alike, the source gives them in different places.

What was measured:
FXa (bovine) = FXa (bovine) (Bos taurus, UniProt P00743); details: FXa 0.088 μmol/l, MeSO2-D-HHT-Gly-Arg-pNA 1.02 mmol/l, pH 7.4
Chain of FXa (bovine) (P00743 234-492 limits assumed): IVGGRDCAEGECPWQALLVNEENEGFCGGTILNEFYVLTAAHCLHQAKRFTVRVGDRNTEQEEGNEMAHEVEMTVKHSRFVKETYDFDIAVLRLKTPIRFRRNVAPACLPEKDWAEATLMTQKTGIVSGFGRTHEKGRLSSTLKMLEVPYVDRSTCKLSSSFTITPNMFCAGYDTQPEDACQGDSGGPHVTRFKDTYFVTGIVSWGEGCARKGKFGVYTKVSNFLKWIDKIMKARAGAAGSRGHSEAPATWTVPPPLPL
Chain of FXa (bovine) (P00743 41-180 partner limits assumed): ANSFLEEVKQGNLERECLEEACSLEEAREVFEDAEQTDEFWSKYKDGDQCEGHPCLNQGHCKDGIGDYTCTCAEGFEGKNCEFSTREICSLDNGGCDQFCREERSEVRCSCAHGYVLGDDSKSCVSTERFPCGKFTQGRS
From the text: FXa Test Mixture (concentration in the Test)
(§1) 42 mmol/l Tris-HCl, pH 7.4
(§2) 1.02 mmol/l MeSO2 -D-HHT-Gly-Arg-pNA
0.088 μmol/l FXa (bovine)
(§3) 0-50% ethanol or ethylene glycol

rFIXa (human) [1] = molecular target: T1, rFIXa (human) (Homo sapiens, UniProt P00740); assay: Influence of alcohols and organic solvents on the activity of rFIXa, chromogenic peptide substrates; format: biochemical; parameters: coding for the FIX protease domain from amino acid position 181 to 415; Met (ATG start codon) (N); made in house; details: for V/V0: pH 7.4
Method: The reaction was started by adding FIXa.
MeSO2 -D-HHT-Gly-Arg-pNA→MeSO2 -D-HHT-Gly-Arg+pNA measurement signal: pNA
0.48 μmol/l rFIXa (human)
0-50% (alcohol or organic solvent)
The ratio V/V0 was calculated to illustrate the stimulation of the catalytic activity of rFIXa.
V0, reaction rate without additives
V, reaction rate in the presence of additives
Test Mixture Chromogenic (Concentration in the Test)
Target sequence in this assay (P00740 227-461 limits assumed): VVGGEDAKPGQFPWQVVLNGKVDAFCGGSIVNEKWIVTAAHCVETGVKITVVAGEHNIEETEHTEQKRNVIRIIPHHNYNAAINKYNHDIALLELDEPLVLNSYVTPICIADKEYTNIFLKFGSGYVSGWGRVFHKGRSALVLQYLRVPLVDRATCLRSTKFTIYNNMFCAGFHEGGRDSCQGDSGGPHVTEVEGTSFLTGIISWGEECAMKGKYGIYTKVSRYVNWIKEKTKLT
Target sequence in this assay (P00740 131-226 partner limits assumed): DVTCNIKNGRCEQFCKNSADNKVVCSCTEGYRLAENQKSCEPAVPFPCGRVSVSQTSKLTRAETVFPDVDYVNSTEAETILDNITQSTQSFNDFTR

rFIXa (human) [2] = molecular target: T1, rFIXa (human); details: fluorogenic MeSO2-D-CHA-Gly-Arg-AMC 0.51 mmol/l, 0.08 μmol/l rFIXa, pH 7.4
From the text: The stimulation of human rFIXa by ethanol and ethylene glycol was examined using the peptide substrates MeSO2 -D-HHT-Gly-Arg-pNA (Pefachrom tPA, Pentapharm Ltd., Basel, Switzerland), MOC-D-Nle-Gly-Arg-pNA (Chromozym X, Boehringer Mannheim GmbH, Mannheim, Germany, Cat.No. 789763), MeSO2 -D-CHG-Gly-Arg-pNA (Pentapharm Ltd., Basel, Switzerland), MeSO2 -D-CHA-Gly-Arg-pNA (Pentapharm Ltd., Basel, Switzerland) and MeSO2 -D-CHA-Gly-Arg-AMC (Pentapharm Ltd., Basel, Switzerland).
Test Mixture Fluorogenic (Concentration in the Test)
0.51 mmol/l MeSO2 -D-CHA-Gly-Arg-AMC
0.08 μmol/l rFIXa (human)
Target sequence in this assay (P00740 227-461): as the sequence (P00740 227-461 limits assumed) above
Target sequence in this assay (P00740 131-226): as the sequence (P00740 131-226 partner limits assumed) above

[3] = molecular target: plasma kallikrein (human) (Homo sapiens, UniProt P03952); details: 10-20% ethanol
Chain of plasma kallikrein (human) (P03952 391-638 limits assumed): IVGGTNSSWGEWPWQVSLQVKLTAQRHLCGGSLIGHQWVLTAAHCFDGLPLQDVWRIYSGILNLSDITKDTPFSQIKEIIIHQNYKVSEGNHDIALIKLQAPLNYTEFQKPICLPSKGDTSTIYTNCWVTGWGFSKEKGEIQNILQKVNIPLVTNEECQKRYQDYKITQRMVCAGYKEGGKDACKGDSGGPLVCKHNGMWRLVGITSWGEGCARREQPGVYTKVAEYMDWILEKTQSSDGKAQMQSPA
Chain of plasma kallikrein (human) (P03952 20-390 partner limits assumed): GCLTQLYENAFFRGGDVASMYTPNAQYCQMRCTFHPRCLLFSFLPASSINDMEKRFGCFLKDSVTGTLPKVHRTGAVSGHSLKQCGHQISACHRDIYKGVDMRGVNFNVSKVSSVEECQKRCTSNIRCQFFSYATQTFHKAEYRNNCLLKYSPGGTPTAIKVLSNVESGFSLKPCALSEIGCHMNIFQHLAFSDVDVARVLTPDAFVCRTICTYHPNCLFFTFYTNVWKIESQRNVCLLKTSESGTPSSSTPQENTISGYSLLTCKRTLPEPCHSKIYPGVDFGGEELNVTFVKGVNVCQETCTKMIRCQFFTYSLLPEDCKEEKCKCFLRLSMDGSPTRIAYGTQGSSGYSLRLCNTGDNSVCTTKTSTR
From the text: Plasma Kallikrein Test Mixture (Concentration in the Test)
as §1, §2
0.0176 U/ml plasma kallikrein (human)
as §3

FXIa (human) = FXIa (human) (Homo sapiens, UniProt P03951); details: FXIa 0.0012 μmol/l, MeSO2-D-HHT-Gly-Arg-pNA 1.02 mmol/l, pH 7.4
Chain of FXIa (human) (P03951 388-625 limits assumed): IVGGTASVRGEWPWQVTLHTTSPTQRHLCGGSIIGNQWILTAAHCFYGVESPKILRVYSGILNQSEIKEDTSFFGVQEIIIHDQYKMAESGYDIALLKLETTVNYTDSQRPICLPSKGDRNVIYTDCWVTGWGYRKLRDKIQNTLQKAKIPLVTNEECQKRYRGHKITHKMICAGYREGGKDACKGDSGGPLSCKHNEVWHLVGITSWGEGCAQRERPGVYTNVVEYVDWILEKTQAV
Chain of FXIa (human) (P03951 19-387 partner limits assumed): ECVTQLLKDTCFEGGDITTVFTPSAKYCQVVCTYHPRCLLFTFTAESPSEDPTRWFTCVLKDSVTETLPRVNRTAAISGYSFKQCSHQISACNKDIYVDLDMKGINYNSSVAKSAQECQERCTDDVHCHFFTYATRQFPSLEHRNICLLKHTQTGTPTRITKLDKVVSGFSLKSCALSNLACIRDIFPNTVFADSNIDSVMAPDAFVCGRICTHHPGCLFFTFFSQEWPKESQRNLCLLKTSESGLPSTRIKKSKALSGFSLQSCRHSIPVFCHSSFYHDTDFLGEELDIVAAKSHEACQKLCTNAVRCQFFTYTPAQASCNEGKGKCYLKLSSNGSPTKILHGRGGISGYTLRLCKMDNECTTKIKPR
From the text: FXIa Test Mixture (Concentration in the Test)
as §1, §2
0.0012 μmol/l FXIa (human)
as §3

thrombin (bovine) = thrombin (bovine) (Bos taurus, UniProt P00735); details: thrombin 0.045 μmol/l, MeSO2-D-HHT-Gly-Arg-pNA 1.02 mmol/l, pH 7.4
From the text: Thrombin Test Mixture (Concentration in the Test)
as §1, §2
0.045 μmol/l thrombin (bovine)
as §3

native FIXa (human) = native FIXa (human) (Homo sapiens, UniProt P00740); details: pH 7.4; for V/V0: MeSO2-D-HHT-Gly-Arg-pNA 1.02 mmol/l, 0.14 μmol/l native FIXa
Chain of native FIXa (human) (P00740 227-461 limits assumed): as the sequence (P00740 227-461 limits assumed) above
Chain of native FIXa (human) (P00740 47-191 partner limits assumed): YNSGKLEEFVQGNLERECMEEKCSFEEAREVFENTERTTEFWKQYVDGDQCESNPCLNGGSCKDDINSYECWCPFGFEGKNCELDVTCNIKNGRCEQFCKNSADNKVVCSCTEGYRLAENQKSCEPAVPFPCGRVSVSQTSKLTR
Method: The FIXa test was carried out with recombinantly produced native human FIXa as a sample and the peptide substrate MeSO2 -D-HHT-Gly-Arg-pNA (Pefachrom tPA, Pentapharm Ltd., Basel, Switzerland) or other chromogenic/fluorogenic substrates of the R-D-Xxx-Gly-Arg-pNA type (EP-B 0 034 122) in Tris-HCl buffer and the substances to be tested (alcohol, solvents and inhibitors). The reaction was started by adding FIXa.
The test mixture was incubated at room temperature (25° C.) in a microtitre plate and the change in absorbance (ΔA/min) was measured at 405 nm using an ELISA reader. The activity and the kinetic constants were determined from the linear initial slope according to the Michaelis-Menten equation.
as §2
0.14 μmol/l native FIXa (human)
as §3
FIXa Test Mixture (Concentration in the Test)

FXIIa (human) = FXIIa (human) (Homo sapiens, UniProt P00748); details: FXIIa 0.0045 U/ml, MeSO2-D-HHT-Gly-Arg-pNA 1.02 mmol/l, pH 7.4
Chain of FXIIa (human) (P00748 373-615 limits assumed, other chains not shown): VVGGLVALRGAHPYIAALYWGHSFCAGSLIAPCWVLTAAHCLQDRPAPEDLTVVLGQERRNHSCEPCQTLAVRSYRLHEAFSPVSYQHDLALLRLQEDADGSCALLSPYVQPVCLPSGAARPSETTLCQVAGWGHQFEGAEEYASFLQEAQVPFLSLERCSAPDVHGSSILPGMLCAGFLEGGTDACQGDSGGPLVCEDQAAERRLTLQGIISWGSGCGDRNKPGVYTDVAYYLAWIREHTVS
From the text: FXIIa Test Mixture (Concentration in the Test)
as §1, §2
0.0045 U/ml FXIIa (human)
as §3

- V/V0 (FXa (bovine); 8% alcohol): 0.899
- V/V0 (FXa (bovine); 16% alcohol): 0.752
- V/V0 (FXa (bovine); 25% alcohol): 0.510
- V/V0 (FXa (bovine); 41% alcohol): 0.203
- V/V0 (FXa (bovine); 50% alcohol): 0.086
- V/V0 (rFIXa (human) [1]; 8% additive, MOC-D-Nle-Gly-Arg-pNA 0.82 mmol/l, 0.48 μmol/l rFIXa): 3.63
- V/V0 (rFIXa (human) [1]; 8% additive, MeSO2-D-CHA-Gly-Arg-pNA 1.02 mmol/l, 0.48 μmol/l rFIXa): 3.30
- V/V0 (rFIXa (human) [1]; 8% additive, MeSO2-D-CHG-Gly-Arg-pNA 1.02 mmol/l, […] rFIXa): 3.33
- V/V0 (rFIXa (human) [1]; 8% additive, MeSO2-D-HHT-Gly-Arg-pNA 1.02 mmol/l, 0.48 μmol/l rFIXa): 2.99
- V/V0 (rFIXa (human) [1]; 16% additive, MOC-D-Nle-Gly-Arg-pNA 0.82 mmol/l, 0.48 μmol/l rFIXa): 7.28
- V/V0 (rFIXa (human) [1]; 16% additive, MeSO2-D-CHA-Gly-Arg-pNA 1.02 mmol/l, 0.48 μmol/l rFIXa): 5.40
- V/V0 (rFIXa (human) [1]; 16% additive, MeSO2-D-CHG-Gly-Arg-pNA 1.02 mmol/l, […] rFIXa): 6.02
- V/V0 (rFIXa (human) [1]; 16% additive, MeSO2-D-HHT-Gly-Arg-pNA 1.02 mmol/l, 0.48 μmol/l rFIXa): 5.52
- V/V0 (rFIXa (human) [1]; 25% additive, MOC-D-Nle-Gly-Arg-pNA 0.82 mmol/l, 0.48 μmol/l rFIXa): 9.95
- V/V0 (rFIXa (human) [1]; 25% additive, MeSO2-D-CHA-Gly-Arg-pNA 1.02 mmol/l, 0.48 μmol/l rFIXa): 5.38
- V/V0 (rFIXa (human) [1]; 25% additive, MeSO2-D-CHG-Gly-Arg-pNA 1.02 mmol/l, […] rFIXa): 6.16
- V/V0 (rFIXa (human) [1]; 25% additive, MeSO2-D-HHT-Gly-Arg-pNA 1.02 mmol/l, 0.48 μmol/l rFIXa): 5.57
- V/V0 (rFIXa (human) [1]; 33% additive, MOC-D-Nle-Gly-Arg-pNA 0.82 mmol/l, 0.48 μmol/l rFIXa): 7.51
- V/V0 (rFIXa (human) [1]; 33% additive, MeSO2-D-CHA-Gly-Arg-pNA 1.02 mmol/l, 0.48 μmol/l rFIXa): 4.30
- V/V0 (rFIXa (human) [1]; 33% additive, MeSO2-D-CHG-Gly-Arg-pNA 1.02 mmol/l, […] rFIXa): 4.50
- V/V0 (rFIXa (human) [1]; 33% additive, MeSO2-D-HHT-Gly-Arg-pNA 1.02 mmol/l, 0.48 μmol/l rFIXa): 3.35
- V/V0 (rFIXa (human) [1]; 41% additive, MOC-D-Nle-Gly-Arg-pNA 0.82 mmol/l, 0.48 μmol/l rFIXa): 3.15
- V/V0 (rFIXa (human) [1]; 50% additive, MeSO2-D-CHA-Gly-Arg-pNA 1.02 mmol/l, 0.48 μmol/l rFIXa): 0.89
- V/V0 (rFIXa (human) [1]; 50% additive, MeSO2-D-CHG-Gly-Arg-pNA 1.02 mmol/l, […] rFIXa): 0.87
- V/V0 (rFIXa (human) [1]; 50% additive, MeSO2-D-HHT-Gly-Arg-pNA 1.02 mmol/l, 0.48 μmol/l rFIXa): 0.606
- V/V0 (rFIXa (human) [1]; 50% additive, MeSO2-D-HHT-Gly-Arg-pNA 1.02 mmol/l, 0.48 μmol/l rFIXa, listed as ethanol): 0.61 and 0.60
- stimulation of the activity of rFIXa (rFIXa (human) [1]; concentration range of 15-40%): 5-15 fold
- V/V0 (rFIXa (human) [2]; 8% additive): 2.09
- V/V0 (rFIXa (human) [2]; 16% additive): 2.50
- V/V0 (rFIXa (human) [2]; 33% additive): 1.01
- V/V0 (rFIXa (human) [2]; 41% additive): 0.70
- V/V0 (rFIXa (human) [2]; 50% additive): 0.58
- activation of plasma kallikrein (in words) [3]: slight activation
- V/V0 (FXIa (human); 8% alcohol): 1.08
- V/V0 (FXIa (human); 16% alcohol): 0.845
- V/V0 (FXIa (human); 25% alcohol): 0.657
- V/V0 (FXIa (human); 33% alcohol): 0.469
- V/V0 (FXIa (human); 41% alcohol): 0.353
- V/V0 (FXIa (human); 50% alcohol): 0.258
- V/V0 (thrombin (bovine); 8% alcohol): 0.846
- V/V0 (thrombin (bovine); 16% alcohol): 0.685
- V/V0 (thrombin (bovine); 25% alcohol): 0.507
- V/V0 (thrombin (bovine); 33% alcohol): 0.343
- V/V0 (thrombin (bovine); 41% alcohol): 0.184
- V/V0 (thrombin (bovine); 50% alcohol): 0.087
- activation among plasma kallikrein, FXIIa, FXIa, FIXa, FXa and thrombin (in words) (native FIXa (human); 0-50% alcohol, MeSO2-D-HHT-Gly-Arg-pNA): only FIXa is activated
- V/V0 (native FIXa (human); 8% additive): 3.40
- V/V0 (native FIXa (human); 16% additive): 5.46
- V/V0 (native FIXa (human); 25% additive): 5.96
- V/V0 (native FIXa (human); 33% additive): 4.82
- V/V0 (native FIXa (human); 41% additive): 1.69
- V/V0 (native FIXa (human); 50% additive): 1.17
- V/V0 (FXIIa (human); 8% alcohol): 0.904
- V/V0 (FXIIa (human); 16% alcohol): 0.579
- V/V0 (FXIIa (human); 25% alcohol): 0.187
- V/V0 (FXIIa (human); 33% alcohol): 0.051
- V/V0 (FXIIa (human); 41% alcohol): 0.009
- V/V0 (FXIIa (human); 50% alcohol): 0
SMILES: CCO [Ethanol]
